Measurements from patent US20160152704A1, “CADHERIN 15 AGONISTS” (THE UNIVERSITY OF BIRMINGHAM, priority 2013, published 2016).
Read-outs that look alike come from different tables or passages of the source.

How the values were obtained:
[1] = tested on: T cells (PBL) on HUVEC where CDH15 or THBS1 were knock-down; assay: T cell transmigration assay using endothelial cells with siRNA knock-down of CDH15 or THBS1; assay type: cell-based, human; conditions: FIG. 4
Description: (§1) We measured the transmigration of T cells (PBL) after 6 minutes incubation at 37° C. on TNF-α and IFN-α stimulated endothelial cells (EC) using phase contrast microscopy. Cultured ECs were stimulated by cytokines for 24 hours. Subsequently, peripheral blood lymphocytes (PBL) were purified from the blood of healthy donors. PEPITEM was added to the PBL and these were incubated on the endothelial cells for 6 minutes. Non-adherent PBLs were removed by washing with cell free buffer. Video-microscope images of adherent cells were made from at least 5 fields of view for each EC monolayer. Adherent lymphocytes were either, i) phase bright (PB) and adherent to the apical surface of the endothelium, or ii) phase dark (PD) and migrated through the EC monolayer. The percentage of migrated cells was calculated by dividing the number of migrated cells by the total number of adherent lymphocytes (PB+PD) and multiplying by 100. To determine whether PEPITEM targets T-cells or endothelial cells, we pre-treated T-cells, endothelial cells or both T cells and endothelial cells with PEPITEM.
HUVEC were plated in a 12 well plate (87500 cells per well) for 24 hours or until about 80% confluence. The relevant siRNA were added at a final concentration of 50 nM to 83.75 μl or 82.5 μl if duplex in Optimem media (Life Technologies Invitrogen Compounds). […]

CDH15-FC protein = target: T1, CDH15-FC protein (Homo sapiens, UniProt P55291); assay: Surface plasmon resonance (Biocore 3000), PEPITEM perfused over immobilised CDH15-FC; assay type: binding; conditions: PEPITEM perfused at increasing concentration; FIG. 5
T1 construct: Fc
Text: Gold-coated chips were used to analyse the interaction of CDH15 with PEPITEM in the Biocore 3000 instrument. CDH15-FC protein was immobilised on a Biocore chip. PEPITEM was perfused through the Biocore cell at increasing concentration. […] This provides further evidence that cadherin-15 is the PEPITEM receptor.

[2] = tested on: T cells (PBL) on TNF-α and IFN-α stimulated endothelial cells (EC); assay type: cell-based; conditions: FIG. 1
Description: as §1

T1 sequence (P55291 with tags, fused parts or gaps limits assumed): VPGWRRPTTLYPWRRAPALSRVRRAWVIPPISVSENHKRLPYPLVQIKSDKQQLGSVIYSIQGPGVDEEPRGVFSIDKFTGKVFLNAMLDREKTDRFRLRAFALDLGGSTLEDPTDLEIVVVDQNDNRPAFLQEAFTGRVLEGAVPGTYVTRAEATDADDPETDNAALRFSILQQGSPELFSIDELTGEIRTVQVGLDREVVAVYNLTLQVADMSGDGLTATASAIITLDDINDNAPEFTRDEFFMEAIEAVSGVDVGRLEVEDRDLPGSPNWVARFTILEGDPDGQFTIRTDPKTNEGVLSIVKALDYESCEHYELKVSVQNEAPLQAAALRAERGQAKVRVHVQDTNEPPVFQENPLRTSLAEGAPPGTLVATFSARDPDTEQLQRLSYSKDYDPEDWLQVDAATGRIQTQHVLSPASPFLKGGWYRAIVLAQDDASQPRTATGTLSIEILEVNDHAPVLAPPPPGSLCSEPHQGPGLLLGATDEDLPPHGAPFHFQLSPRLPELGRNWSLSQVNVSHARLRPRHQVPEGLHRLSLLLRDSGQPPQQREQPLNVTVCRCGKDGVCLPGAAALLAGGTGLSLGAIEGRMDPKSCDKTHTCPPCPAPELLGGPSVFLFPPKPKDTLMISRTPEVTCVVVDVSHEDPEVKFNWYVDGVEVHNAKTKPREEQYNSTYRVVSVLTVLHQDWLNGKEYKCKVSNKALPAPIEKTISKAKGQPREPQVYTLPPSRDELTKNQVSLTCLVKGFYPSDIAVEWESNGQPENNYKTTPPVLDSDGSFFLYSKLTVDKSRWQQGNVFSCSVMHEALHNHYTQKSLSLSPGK

PEPITEM (SVTEQGAELSNEER; listed as Homo sapiens)
inhibitory effect on T cell transmigration ([1]; endothelial cells with CDH15 (cadherin-15) knockdown): released T-cells from the inhibitory effects
effect on T-cell trafficking ([1]; endothelial cells with THBS1 (thrombospondin-1) knockdown, presence of PEPITEM): no significant effect
binding to CDH15 protein (changes in SPR) (CDH15-FC protein): able to bind to the CDH15 protein
inhibition of T cell transmigration ([2]; T-cells alone pre-treated with PEPITEM): ineffective at inhibiting transmigration
inhibition of T cell transmigration ([2]; endothelial cells pre-treated with PEPITEM): transmigration is successfully inhibited
